According to patent US4496590A, “Benzyl alcohol derivatives, their preparation and use” (Sterling Drug Inc., priority 1983, dated 1985):
Like-named read-outs stand apart in the source and are kept apart here.

Experiments:
cyclooxygenase = target: T1, cyclooxygenase (Rattus norvegicus, UniProt Q63921); experiment: inhibition of cyclooxygenase derived from rat basophilic leukemia (RBL-1) cells (PGD2 formation, C1); format: biochemical; details: RBL-1 enzyme, read-out: % Inhibition C1 (cyclooxygenase product PGD2)
T1 construct: 14C-arachidonic acid substrate, PGD2 measured
T1 sequence (Q63921 27-602): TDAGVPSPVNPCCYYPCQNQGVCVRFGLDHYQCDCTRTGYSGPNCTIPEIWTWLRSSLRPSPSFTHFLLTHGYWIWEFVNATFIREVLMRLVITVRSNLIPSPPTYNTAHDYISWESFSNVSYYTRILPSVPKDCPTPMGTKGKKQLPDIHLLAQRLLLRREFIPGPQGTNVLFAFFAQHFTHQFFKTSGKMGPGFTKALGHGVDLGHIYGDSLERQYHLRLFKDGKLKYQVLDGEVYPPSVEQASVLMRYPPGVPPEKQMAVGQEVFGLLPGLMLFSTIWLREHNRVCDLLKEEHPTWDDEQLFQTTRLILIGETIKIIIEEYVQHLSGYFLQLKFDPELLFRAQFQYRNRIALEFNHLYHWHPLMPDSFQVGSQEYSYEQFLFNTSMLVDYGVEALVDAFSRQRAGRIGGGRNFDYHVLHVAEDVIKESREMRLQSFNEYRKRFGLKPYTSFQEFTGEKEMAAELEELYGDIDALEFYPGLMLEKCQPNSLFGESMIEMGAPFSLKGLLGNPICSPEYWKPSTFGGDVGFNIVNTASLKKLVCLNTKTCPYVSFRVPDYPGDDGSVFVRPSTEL
Description: (§1) The primary screening test used is a determination of the inhibition of lipoxygenase and cyclooxygenase derived from rat basophilic leukemia (RBL-1) cells. The test was carried out according to the following procedure:
(§2) Single cell suspensions of RBL-1 cells are homogenized to obtain the microsomal fraction containing lipoxygenase and cyclooxygenase. Test compounds are added to the enzyme-containing homogenate for a 5 min preincubation period at 37° C. prior to the addition of ^14 C-arachidonic acid substrate. Following incubation at 37° C. for 15 min, the reaction is stopped by the addition of 2M formic acid and the enzyme-substrate products are extracted into chloroform. An aliquot of the extract is evaporated to dryness, reconstituted in ether to 1/10 original volume, spotted on thin layer chromatography plates and chromatographed. The peak areas of radioactivity representing the products are located by scanning the plates. The quantity of products formed is estimated by measuring the height of the radioactivity peaks observed on the chromatographic scans. Alternatively, the areas of radioactivity are scraped from the plate and the ^14 C quantitated by scintillation counting. The percent inhibition in the formation of the cyclooxygenase product PGD2, designated as Cl and lipoxygenase products, L1 designated for 5,12-di-HETE and L2 for 5-HETE are shown. Compounds with >50% inhibition of L1 and L2 at a screening concentration of 1 μM are considered active.
(§3) ^(a) Percent inhibition of cyclooxygenase (C1) and lipoxygenase (L1
(§4) and L2) formation at a dose of 1 μM.
(§5) ^(b) Inhibitory concentration (μ M) in 50% of tests.

[1] = system: SRS-A component of immunologically induced broncho-construction; experiment: effect on the SRS-A component of immunologically induced bronchoconstriction in guinea pigs; format: in vivo; details: i.v.; for ED50: Cavia porcellus, iv, guinea pig, indomethacin + chlorpheniramine medicated, arachidonic acid, antigen challenge, read-out: In vivo Guinea Pig ED50 i.v.
Description: The test was carried out according to the following procedure:
Two weeks after immunization with egg albumin, guinea pigs are prepared for bronchoconstruction determination. One hour prior to antigen challenge, each animal is dosed orally with idomethacin and chlorpheniramine. Animals are anesthetized with sodium pentobarbital, the trachea cannulated and the animal artifically respired. Arachidonic acid is administered intravenously prior to antigen challenge. The resulting bronchoconstruction is recorded by the standard lung overflow procedure and the peak increase in intratracheal pressure (mm Hg) over a 10 minute observation period is recorded. Compounds are evaluated for their ability to prevent the increased intratracheal pressure in an experimental group of animals as compared to the medicated (indomethacin+chlorpheniramine+arachidonic acid) control group. The results are expressed in terms of percent inhibition or as ED50 values (effective does in 50% of the animals).

lipoxygenase = target: T2, lipoxygenase (Rattus norvegicus, UniProt P12527); experiment: inhibition of lipoxygenase derived from rat basophilic leukemia (RBL-1) cells (L1 5,12-di-HETE and L2 5-HETE formation); format: biochemical; details: RBL-1 enzyme
T2 construct: Single cell suspensions of RBL-1 cells are homogenized to obtain the microsomal fraction containing lipoxygenase and cyclooxygenase; endogenous in cells; host or cells: RBL-1 (rat basophilic leukemia) cells, homogenate / microsomal fraction
T2 sequence (P12527 1-673): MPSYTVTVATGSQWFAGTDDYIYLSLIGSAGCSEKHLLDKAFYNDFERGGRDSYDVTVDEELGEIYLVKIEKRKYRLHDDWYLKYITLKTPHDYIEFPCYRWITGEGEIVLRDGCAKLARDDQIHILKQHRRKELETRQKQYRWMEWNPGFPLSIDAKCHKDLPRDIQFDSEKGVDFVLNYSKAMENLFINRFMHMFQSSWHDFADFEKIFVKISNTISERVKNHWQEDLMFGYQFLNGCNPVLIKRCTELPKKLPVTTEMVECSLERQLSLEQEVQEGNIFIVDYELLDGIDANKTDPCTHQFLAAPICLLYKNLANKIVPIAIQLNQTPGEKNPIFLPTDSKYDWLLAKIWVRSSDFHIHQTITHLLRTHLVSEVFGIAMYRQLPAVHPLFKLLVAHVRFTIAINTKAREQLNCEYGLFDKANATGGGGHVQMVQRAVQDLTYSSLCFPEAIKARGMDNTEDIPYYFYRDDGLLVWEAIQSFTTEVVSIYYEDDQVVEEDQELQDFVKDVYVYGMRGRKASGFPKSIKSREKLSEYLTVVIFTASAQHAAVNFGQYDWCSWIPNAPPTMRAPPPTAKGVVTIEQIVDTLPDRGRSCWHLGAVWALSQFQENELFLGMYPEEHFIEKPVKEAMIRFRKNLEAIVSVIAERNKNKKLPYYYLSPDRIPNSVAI
Description: as §1, §2, §3, §4, §5

[2] = L1 5,12-di-HETE, read-out: % Inhibition L1 (lipoxygenase product 5,12-di-HETE)
[3] = L2 5-HETE, read-out: % Inhibition L2 (lipoxygenase product 5-HETE)
[4] = L1 5,12-di-HETE, read-out: IC50 L1 (lipoxygenase product 5,12-di-HETE)
[5] = L2 5-HETE, read-out: IC50 L2 (lipoxygenase product 5-HETE)

Structure (SMILES)	inhibition at 1 µM (cyclooxygenase) [%]	ED50 [1] [mg/kg]	inhibition at 1 µM (lipoxygenase; [2]) [%]	inhibition at 1 µM (lipoxygenase; [3]) [%]	IC50 (lipoxygenase; [4]) [nM]	IC50 (lipoxygenase; [5]) [nM]	In vivo Guinea Pig percent inhibition ([1]; 0.3 mg/kg) [%]	In vivo Guinea Pig percent inhibition ([1]; 1-3 mg/kg) [%]
COc1ccc(Nc2ccc(O)cc2)c(CO)c1 [Example 1c, 2-(4-Hydroxyphenylamino)-5-methoxybenzenemethanol]	2	0.13	88	98	200	90		
OCc1ccccc1Nc1ccc(O)cc1 [Example 2c, 2-(4-Hydroxyphenylamino)benzenemethanol]	4	0.84	84	94	380	280		
COc1ccc(Nc2ccc(O)cc2)c(C(C)O)c1 (stereo not drawn) [Example 6c, 2-(4-Hydroxyphenylamino)-5-methoxy-α-methylbenzenemethanol]	2		89	98	200	160		
COc1ccc(N=C2C=CC(=O)C=C2)c(CO)c1 [Example 8, 4-(2-Hydroxymethyl-4-methoxyphenylimino)-2,5-cyclohexadien-1-one]	0	0.12	85	96	190	150		
OCc1cc(Cl)ccc1Nc1ccc(O)cc1 [Example 3c, 5-Chloro-2-(4-hydroxyphenylamino)benzenemethanol]	6	0.49	81	99	60	40		
OCc1ccc(Cl)cc1Nc1ccc(O)cc1 [Example 4c, 4-Chloro-2-(4-hydroxyphenylamino)benzenemethanol]	24		82	100	230	160	43	63
CC(O)c1ccccc1Nc1ccc(O)cc1 (stereo not drawn) [Example 5c, 2-(4-Hydroxyphenylamino)-α-methylbenzenemethanol]	14		86	99	200	180		
